Biological target: T1, cloned human dopamine D3 receptors (Homo sapiens, UniProt P35462)
T1 construct: expressed in transfected cells
Assay: [N-Methyl-3H]Spiroperidol binding to cloned human dopamine D3 receptors
From the text: [N-Methyl-^3H]Spiroperidol Binding to Cloned Human Dopamine D3 Receptors
This assay measures the in vitro activity of compounds on cloned human dopamine (D3) receptors and predicts the direct dopamine-blocking properties of putative neuropsychiatric agents at human dopamine D3 receptors.
The D3 gene was isolated from a human striatal cDNA library (Stratagene). The gene was sequenced and sub-cloned into the expression vector RC/RSV (Invitrogen). CHO (Chinese Hamster Ovary) cells were stably transfected with 10 μg of the D3/RSV plasmid using the DOTAP method from Boehringer Mannheim and 72 clones that were G418 resistant were isolated. Using mRNA and binding displacement data a single high expressing clone was identified. This clone was then grown in large batches for the purpose of developing a 96 well format assay.
The cells are harvested into 250 ml centrifuge tubes with 100 volumes of cold phosphate buffered saline (PBS) and spun down (1200×G for 10 min at 4° C.). The medium is removed and 100 ml PBS are added to each centrifuge tube, cells are resuspened and spun down again. The PBS is removed and the final pellet is homogenized in an appropriate volume of 10% DMSO with a polytron on ice at a medium setting.
For Kj determinations: [^3H]NMSP is made up to a concentration of 2.7 nM in buffer 2b, such that when 150 μl is added to each tube a final concentration of 0.4 nM is attained in the 1 ml assay. Samples of total CPM added are taken for each experiment to calculate the total ligand concentration.
5. S(-)-Eticlopride is obtained from Research Biochemicals International (RBI catalog number E-101). A refrigerated stock (good for up to a month) solution of S(-)-eticlopride is made at a concentration of 30 μM in buffer 2b. One hundred microliters are added to 3 wells for the determination of nonspecific binding (this yields a final concentration of 3 μM in the 1 ml assay).
For most assays, a 100 μM stock solution of the test compound is made up in a suitable solvent (usually <0.1% acetic acid) and serially diluted with buffer 2b, such that when 100 μl of drug is combined with the total 1 ml assay, final concentrations ranging from 10^−5-10^−8 M are attained. Characteristically eight concentrations are studied for each assay; however, higher or lower concentrations may be used, depending on the potency of the drug.
The 96-Well Packard Unifilters GF/B are incubated for >1 h at 25° C. in 0.1% polyethylamine (from 3,b). The cold tissue is added last and mixed on a orbital shaker for a few seconds and is then incubated at 37° C. for 30 min in a shaking water bath. The assay is stopped by rapid filtration through Packard Unifilter plates. The filter membranes are then washed with 15 ml of ice-cold 0.05 M Tris buffer. The filters are then dried (˜15 min under a heat lamp or incubated for 15 min in a 60° C. oven) and a bottom seal is applied. Then 40 μl of Packard Microscint 20 scintillation cocktail is added and a permanent topseal (Type P) is applied and heat sealed. The plates are then shaken on an orbital shaker for 1 h and placed in the Packard Topcount and counted for at least 5 minutes for each point.
Specific binding is defined as the difference between total binding and the binding in the presence of 3 μM S-(-)-eticlopride. Total binding is approximately 10% of the total added ligand. Cheng-Prusoff determination (Kj's) are performed using Prism software using a one-site competition curve analysis where the top and the bottom of the non-linear regression are held constant at 0% and 100% percent inhibition. The percent inhibition at each drug concentration is the mean of duplicate determinations.

T1 sequence (P35462 whole entry): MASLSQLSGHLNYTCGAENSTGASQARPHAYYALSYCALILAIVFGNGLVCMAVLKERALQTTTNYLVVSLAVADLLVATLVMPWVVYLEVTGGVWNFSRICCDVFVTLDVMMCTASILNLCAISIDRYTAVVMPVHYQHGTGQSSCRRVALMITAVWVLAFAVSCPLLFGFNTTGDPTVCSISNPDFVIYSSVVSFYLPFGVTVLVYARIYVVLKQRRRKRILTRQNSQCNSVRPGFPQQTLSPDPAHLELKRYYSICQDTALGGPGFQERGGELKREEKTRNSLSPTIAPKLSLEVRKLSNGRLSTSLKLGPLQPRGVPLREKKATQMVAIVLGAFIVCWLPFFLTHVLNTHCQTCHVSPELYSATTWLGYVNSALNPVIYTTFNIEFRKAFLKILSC

Structure (SMILES) | Ki [nM]
COc1cccc(NC(=O)NCCCCN2CCCN(c3csc4cc(F)ccc34)CC2)c1 [compound 829221] | 0.0961
O=C(NCCCCN1CCN(c2noc3ccsc23)CC1)Nc1cccc(Cl)c1 [compound 829370] | 4.91
O=C(NCCCCN1CCN(c2noc3ccsc23)CC1)Nc1ccc(OC(F)(F)F)cc1 [compound 829374] | 103
O=C(NCCCCN1CCN(c2noc3ccsc23)CC1)Nc1cc(C(F)(F)F)cc(C(F)(F)F)c1 [compound 829375] | 176
CSc1ccc(NC(=O)NCCCCN2CCN(c3noc4ccsc34)CC2)cc1 [compound 829379] | 54.9
O=C(NCCCCN1CCN(c2noc3ccsc23)CC1)Nc1cc(C(F)(F)F)ccc1F [compound 829385] | 142
O=C(NCCCCN1CCN(c2noc3ccsc23)CC1)Nc1ccc(F)c(C(F)(F)F)c1 [compound 829387] | 114
O=C(NCCCCN1CCN(c2noc3ccsc23)CC1)Nc1ccc(F)cc1 [compound 829388] | 44
O=C(NCCCCN1CCN(c2noc3ccsc23)CC1)Nc1ccc(Cl)c(Cl)c1 [compound 829389] | 50.5
O=C(NCCCCN1CCN(c2noc3ccsc23)CC1)Nc1ccc(Cl)cc1 [compound 829390] | 37.5
O=C(NCCCCN1CCN(c2noc3ccsc23)CC1)Nc1ccc(Cl)cc1C(F)(F)F [compound 829392] | 487
O=C(NCCCCN1CCN(c2noc3ccsc23)CC1)Nc1ccccc1F [compound 829393] | 190
O=C(NCCCCN1CCN(c2noc3ccsc23)CC1)Nc1cccc(F)c1 [compound 829394] | 77.1
COc1ccc(NC(=O)NCCCCN2CCN(c3noc4ccsc34)CC2)cc1 [compound 829396] | 121
O=C(NCCCCN1CCN(c2noc3ccsc23)CC1)Nc1ccc(Br)cc1 [compound 829397] | 86.6
O=C(NCCCCN1CCCN(c2noc3ccsc23)CC1)Nc1ccc(C(F)(F)F)cc1 [compound 829411] | 670

Structure (SMILES) | Ki [nM]
O=C(NCCCCN1CCCN(c2noc3ccsc23)CC1)Nc1cc(Cl)cc(Cl)c1 [compound 829418] | 52.9
Cc1ccc(NC(=O)NCCCCN2CCCN(c3noc4ccsc34)CC2)cc1 [compound 829419] | 138
CSc1ccc(NC(=O)NCCCCN2CCCN(c3noc4ccsc34)CC2)cc1 [compound 829420] | 233
CC(=O)c1cccc(NC(=O)NCCCCN2CCCN(c3noc4ccsc34)CC2)c1 [compound 829421] | 173
O=C(NCCCCN1CCCN(c2noc3ccsc23)CC1)Nc1cc(C(F)(F)F)ccc1F [compound 829425] | 539
O=C(NCCCCN1CCCN(c2noc3ccsc23)CC1)Nc1ccc(F)cc1 [compound 829428] | 747
O=C(NCCCCN1CCCN(c2noc3ccsc23)CC1)Nc1cccc(F)c1 [compound 829431] | 153
COc1ccc(NC(=O)NCCCCN2CCCN(c3noc4ccsc34)CC2)cc1 [compound 829433] | 216
CCOc1ccc(NC(=O)NCCCCN2CCC(c3noc4c(C)csc34)CC2)cc1 [compound 829873] | 27.7
CCOc1ccc(NC(=O)N(CCCCN2CCC(c3noc4c(C)csc34)CC2)C(=O)Nc2ccc(OCC)cc2)cc1 [compound 829874] | 360
Cc1csc2c(C3CCN(CCCCN(C(=O)Nc4cccc(F)c4)C(=O)Nc4cccc(F)c4)CC3)noc12 [compound 829875] | 94.7
COc1cccc(NC(=O)N(CCCCN2CCC(c3noc4c(C)csc34)CC2)C(=O)Nc2cccc(OC)c2)c1 [compound 829876] | 77.1
Cc1csc2c(C3CCN(CCCCNC(=O)Nc4cccc(C(F)(F)F)c4Cl)CC3)noc12 [compound 829882] | 143
Cc1ccc(NC(=O)NCCCCN2CCC(c3noc4cc(C)sc34)CC2)cc1 [compound 830517] | 9.04
COc1ccc(NC(=O)NCCCCN2CCC(c3noc4cc(C)sc34)CC2)cc1 [compound 830518] | 9.16
COc1ccc(NC(=O)NC[C@@H]2C[C@H]2CN2CCN(c3csc4cc(C(F)(F)F)ccc34)CC2)cc1 [compound 832810] | 33.5

More lines, in order of falling Ki, values ahead:

Ki [nM] | Structure (SMILES)
546 | O=C(NCCCCN1CCCN(c2noc3ccsc23)CC1)Nc1cc(C(F)(F)F)cc(C(F)(F)F)c1 [compound 829414]
466 | CC(C)c1ccc(NC(=O)NCCCCN2CCCN(c3noc4ccsc34)CC2)cc1 [compound 829422]
459 | O=C(NCCCCN1CCCN(c2noc3ccsc23)CC1)Nc1ccc(F)c(C(F)(F)F)c1 [compound 829427]
452 | CC(C)c1ccc(NC(=O)NCCCCN2CCN(c3noc4ccsc34)CC2)cc1 [compound 829407]
379 | O=C(NCCCCN1CCCN(c2noc3ccsc23)CC1)Nc1cccc(Cl)c1 [compound 829409]
354 | Cc1csc2c(C3CCN(CCCCNC(=O)Nc4ccccc4F)CC3)noc12 [compound 829879]
345 | O=C(NCCCCN1CCCN(c2noc3ccsc23)CC1)Nc1cc(C(F)(F)F)ccc1Cl [compound 829415]
338 | O=C(NCCCCN1CCCN(c2noc3ccsc23)CC1)Nc1cc(F)ccc1F [compound 829417]
327 | O=C(NCCCCN1CCCN(c2noc3ccsc23)CC1)Nc1ccc(Cl)c(C(F)(F)F)c1 [compound 829416]
226 | O=C(NCCCCN1CCCN(c2noc3ccsc23)CC1)Nc1cccc(C(F)(F)F)c1 [compound 829432]
197 | O=C(NCCCCN1CCCN(c2noc3ccsc23)CC1)Nc1ccc(Br)cc1 [compound 829434]
190 | COc1cc(NC(=O)NCCCCN2CCN(c3noc4ccsc34)CC2)cc(OC)c1OC [compound 829384]
184 | O=C(NCCCCN1CCN(c2noc3ccsc23)CC1)Nc1cc(Cl)cc(Cl)c1 [compound 829378]
148 | O=C(NCCCCN1CCN(c2noc3ccsc23)CC1)Nc1cccc(C(F)(F)F)c1 [compound 829395]
111 | O=C(NCCCCN1CCCN(c2noc3ccsc23)CC1)Nc1ccc(Cl)c(Cl)c1 [compound 829429]
102 | N#Cc1cccc(NC(=O)NCCCCN2CCN(c3noc4ccsc34)CC2)c1 [compound 829383]
87.9 | O=C(NCCCCN1CCN(c2noc3ccsc23)CC1)Nc1cc(F)ccc1F [compound 829377]
61.6 | O=C(NC[C@@H]1C[C@H]1CN1CCN(c2csc3cc(C(F)(F)F)ccc23)CC1)Nc1cccc(F)c1 [compound 832786]
55.2 | O=C(NCCCCN1CCN(c2noc3ccsc23)CC1)Nc1ccc(F)cc1F [compound 829371]
50.8 | O=C(NC[C@@H]1C[C@H]1CN1CCN(c2csc3cc(C(F)(F)F)ccc23)CC1)Nc1cccc(Cl)c1 [compound 832813]
46.5 | CC(=O)c1cccc(NC(=O)NCCCCN2CCN(c3noc4ccsc34)CC2)c1 [compound 829381]
44.2 | Cc1cccc(NC(=O)NCCCCN2CCN(c3noc4ccsc34)CC2)c1 [compound 829369]
44.1 | COc1cccc(NC(=O)NCCCCN2CCN(c3noc4ccsc34)CC2)c1 [compound 829398]
42.7 | CCOc1ccc(NC(=O)NCCCCN2CCN(c3noc4ccsc34)CC2)cc1 [compound 829382]
39.5 | O=C(NC[C@@H]1C[C@H]1CN1CCN(c2csc3cc(C(F)(F)F)ccc23)CC1)Nc1ccccc1C(F)(F)F [compound 832812]
31.9 | O=C(NCCCCN1CCN(c2noc3ccsc23)CC1)Nc1ccc(C(F)(F)F)cc1 [compound 829372]
26.9 | Cc1ccc(NC(=O)NCCCCN2CCN(c3noc4ccsc34)CC2)cc1 [compound 829380]
18.2 | O=C(NC[C@@H]1C[C@H]1CN1CCN(c2csc3cc(C(F)(F)F)ccc23)CC1)NC1CCCCC1 [compound 832811]
14.9 | O=C(NCCCCN1CCN(c2noc3ccsc23)CC1)Nc1cccc(Br)c1 [compound 829373]
8.78 | Cc1cccc(NC(=O)NCCCCN2CCC(c3noc4c(C)csc34)CC2)c1 [compound 829878]

— US20030229066A1, “Novel heterocyclic urea derivatives and their use as dopamine D3 receptor ligands” (priority 2001, published 2003)
